Test results as given in patent US20110263664A1, “Inhibitors of PIM-1 Protein Kinases, Compositions and Methods for Treating Prostate Cancer” (MUSC FOUNDATION FOR RESEARCH DEVELOPMENT, priority 2007, published 2011).

How the values were obtained:
Assay type in all cases: biochemical
AKT2 = AKT2 (Homo sapiens, UniProt P31751); assay: Kinase selectivity, Table 5: AKT2; conditions: read-out: selectivity data (inhibition), AKT2
AKT3 = AKT3 (Homo sapiens, UniProt Q9Y243); assay: Kinase selectivity, Table 5: AKT3; conditions: read-out: selectivity data (inhibition), AKT3
AurA = AurA (Homo sapiens, UniProt O14965); assay: Kinase selectivity, Table 5: AurA; conditions: read-out: selectivity data (inhibition), AurA
BTK = BTK (Homo sapiens, UniProt Q06187); assay: Kinase selectivity, Table 5: BTK; conditions: read-out: selectivity data (inhibition), BTK
CDK2 = CDK2 (Homo sapiens, UniProt P24941); assay: Kinase selectivity, Table 5: CDK2; conditions: read-out: selectivity data (inhibition), CDK2
CHK1 = CHK1 (Homo sapiens, UniProt O14757); assay: Kinase selectivity, Table 5: CHK1; conditions: read-out: selectivity data (inhibition), CHK1
CHK2 = CHK2 (Homo sapiens, UniProt O96017); assay: Kinase selectivity, Table 5: CHK2; conditions: read-out: selectivity data (inhibition), CHK2
c-Raf = c-Raf (Homo sapiens, UniProt P04049); assay: Kinase selectivity, Table 5: c-Raf; conditions: read-out: selectivity data (inhibition), c-Raf
EGFR = EGFR (Homo sapiens, UniProt P00533); assay: Kinase selectivity, Table 5: EGFR; conditions: read-out: selectivity data (inhibition), EGFR
Erk1 = Erk1 (Homo sapiens, UniProt P27361); assay: Kinase selectivity, Table 5: Erk1; conditions: read-out: selectivity data (inhibition), Erk1
Erk2 = Erk2 (Homo sapiens, UniProt P28482); assay: Kinase selectivity, Table 5: Erk2; conditions: read-out: selectivity data (inhibition), Erk2
FLT3 = FLT3 (Homo sapiens, UniProt P36888); assay: Kinase selectivity, Table 5: FLT3; conditions: read-out: selectivity data (inhibition), FLT3
FYN = FYN (Homo sapiens, UniProt P06241); assay: Kinase selectivity, Table 5: FYN; conditions: read-out: selectivity data (inhibition), FYN
HGK = HGK (Homo sapiens, UniProt O95819); assay: Kinase selectivity, Table 5: HGK; conditions: read-out: selectivity data (inhibition), HGK
IGF1R = IGF1R (Homo sapiens, UniProt P08069); assay: Kinase selectivity, Table 5: IGF1R; conditions: read-out: selectivity data (inhibition), IGF1R
Ikkβ = Ikkβ (Homo sapiens, UniProt O14920); assay: Kinase selectivity, Table 5: Ikkβ; conditions: read-out: selectivity data (inhibition), Ikkβ
INSR = INSR (Homo sapiens, UniProt P06213); assay: Kinase selectivity, Table 5: INSR; conditions: read-out: selectivity data (inhibition), INSR
JAK2 = JAK2 (Homo sapiens, UniProt O60674); assay: Kinase selectivity, Table 5: JAK2; conditions: read-out: selectivity data (inhibition), JAK2
JNK2 = JNK2 (Homo sapiens, UniProt P45984); assay: Kinase selectivity, Table 5: JNK2; conditions: read-out: selectivity data (inhibition), JNK2
LCK = LCK (Homo sapiens, UniProt P06239); assay: Kinase selectivity, Table 5: LCK; conditions: read-out: selectivity data (inhibition), LCK
LYN = LYN (Homo sapiens, UniProt P07948); assay: Kinase selectivity, Table 5: LYN; conditions: read-out: selectivity data (inhibition), LYN
MET = MET (Homo sapiens, UniProt P08581); assay: Kinase selectivity, Table 5: MET; conditions: read-out: selectivity data (inhibition), MET
p38α = p38α (Homo sapiens, UniProt Q16539); assay: Kinase selectivity, Table 5: p38α; conditions: read-out: selectivity data (inhibition), p38α
PDK1 = PDK1 (Homo sapiens, UniProt O15530); assay: Kinase selectivity, Table 5: PDK1; conditions: read-out: selectivity data (inhibition), PDK1
PKA = PKA (Homo sapiens, UniProt P17612); assay: Kinase selectivity, Table 5: PKA; conditions: read-out: selectivity data (inhibition), PKA
PKCζ = PKCζ (Homo sapiens, UniProt Q05513); assay: Kinase selectivity, Table 5: PKCζ; conditions: read-out: selectivity data (inhibition), PKCζ
PKD2 = PKD2 (Homo sapiens, UniProt Q9BZL6); assay: Kinase selectivity, Table 5: PKD2; conditions: read-out: selectivity data (inhibition), PKD2
PKGα = PKGα (Homo sapiens, UniProt Q13976); assay: Kinase selectivity, Table 5: PKGα; conditions: read-out: selectivity data (inhibition), PKGα
PRAK = PRAK (Homo sapiens, UniProt Q8IW41); assay: Kinase selectivity, Table 5: PRAK; conditions: read-out: selectivity data (inhibition), PRAK
ROCK2 = ROCK2 (Homo sapiens, UniProt O75116); assay: Kinase selectivity, Table 5: ROCK2; conditions: read-out: selectivity data (inhibition), ROCK2
RSK1 = RSK1 (Homo sapiens, UniProt Q15418); assay: Kinase selectivity, Table 5: RSK1; conditions: read-out: selectivity data (inhibition), RSK1
SGK1 = SGK1 (Homo sapiens, UniProt O00141); assay: Kinase selectivity, Table 5: SGK1; conditions: read-out: selectivity data (inhibition), SGK1
SRC = SRC (Homo sapiens, UniProt P12931); assay: Kinase selectivity, Table 5: SRC; conditions: read-out: selectivity data (inhibition), SRC
SYK = SYK (Homo sapiens, UniProt P43405); assay: Kinase selectivity, Table 5: SYK; conditions: read-out: selectivity data (inhibition), SYK

Chain of HGK (O95819 whole entry, species assumed): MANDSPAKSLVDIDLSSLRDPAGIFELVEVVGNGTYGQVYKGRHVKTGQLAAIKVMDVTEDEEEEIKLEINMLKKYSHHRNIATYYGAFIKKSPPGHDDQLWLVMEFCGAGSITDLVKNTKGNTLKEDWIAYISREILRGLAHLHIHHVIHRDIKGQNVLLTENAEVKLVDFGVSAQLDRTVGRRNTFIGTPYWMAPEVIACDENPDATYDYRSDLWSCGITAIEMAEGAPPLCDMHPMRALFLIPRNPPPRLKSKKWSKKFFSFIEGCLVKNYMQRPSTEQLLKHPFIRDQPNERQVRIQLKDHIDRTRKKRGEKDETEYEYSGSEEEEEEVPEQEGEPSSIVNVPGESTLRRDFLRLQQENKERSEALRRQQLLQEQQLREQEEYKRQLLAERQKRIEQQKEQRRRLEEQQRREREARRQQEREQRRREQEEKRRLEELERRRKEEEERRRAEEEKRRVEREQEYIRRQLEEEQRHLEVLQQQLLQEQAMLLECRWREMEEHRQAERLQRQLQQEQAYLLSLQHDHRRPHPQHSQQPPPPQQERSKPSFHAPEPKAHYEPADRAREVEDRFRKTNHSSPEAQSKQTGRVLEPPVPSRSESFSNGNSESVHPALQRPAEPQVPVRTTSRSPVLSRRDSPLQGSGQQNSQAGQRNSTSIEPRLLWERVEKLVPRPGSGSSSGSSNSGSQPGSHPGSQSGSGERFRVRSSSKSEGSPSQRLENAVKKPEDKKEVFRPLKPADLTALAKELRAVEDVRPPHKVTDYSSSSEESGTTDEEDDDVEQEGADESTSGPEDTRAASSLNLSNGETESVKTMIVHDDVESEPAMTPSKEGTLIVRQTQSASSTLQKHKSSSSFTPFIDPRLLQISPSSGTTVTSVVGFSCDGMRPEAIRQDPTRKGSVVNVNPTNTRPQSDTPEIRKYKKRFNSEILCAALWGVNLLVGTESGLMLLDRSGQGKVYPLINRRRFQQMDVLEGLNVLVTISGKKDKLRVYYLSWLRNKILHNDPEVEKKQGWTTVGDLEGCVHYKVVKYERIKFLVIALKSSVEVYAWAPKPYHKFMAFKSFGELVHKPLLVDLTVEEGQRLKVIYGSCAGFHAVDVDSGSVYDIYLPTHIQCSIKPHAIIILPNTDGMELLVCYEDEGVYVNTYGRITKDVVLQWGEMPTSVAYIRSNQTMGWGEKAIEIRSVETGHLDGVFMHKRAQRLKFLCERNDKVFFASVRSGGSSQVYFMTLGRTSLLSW
Chain of CHK1 (O14757 whole entry, species assumed): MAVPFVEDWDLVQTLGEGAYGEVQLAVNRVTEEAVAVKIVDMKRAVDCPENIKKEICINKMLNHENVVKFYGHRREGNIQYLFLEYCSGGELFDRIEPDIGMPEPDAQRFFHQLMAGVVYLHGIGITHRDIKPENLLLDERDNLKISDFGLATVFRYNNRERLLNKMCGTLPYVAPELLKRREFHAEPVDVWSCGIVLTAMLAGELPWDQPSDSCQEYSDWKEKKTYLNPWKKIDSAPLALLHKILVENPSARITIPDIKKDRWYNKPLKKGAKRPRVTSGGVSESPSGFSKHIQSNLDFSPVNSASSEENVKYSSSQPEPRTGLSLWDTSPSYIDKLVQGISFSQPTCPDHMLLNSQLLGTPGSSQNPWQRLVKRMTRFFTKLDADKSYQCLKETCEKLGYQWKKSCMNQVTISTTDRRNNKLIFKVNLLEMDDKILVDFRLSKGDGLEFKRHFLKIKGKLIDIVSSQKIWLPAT
Chain of SGK1 (O00141 whole entry, species assumed): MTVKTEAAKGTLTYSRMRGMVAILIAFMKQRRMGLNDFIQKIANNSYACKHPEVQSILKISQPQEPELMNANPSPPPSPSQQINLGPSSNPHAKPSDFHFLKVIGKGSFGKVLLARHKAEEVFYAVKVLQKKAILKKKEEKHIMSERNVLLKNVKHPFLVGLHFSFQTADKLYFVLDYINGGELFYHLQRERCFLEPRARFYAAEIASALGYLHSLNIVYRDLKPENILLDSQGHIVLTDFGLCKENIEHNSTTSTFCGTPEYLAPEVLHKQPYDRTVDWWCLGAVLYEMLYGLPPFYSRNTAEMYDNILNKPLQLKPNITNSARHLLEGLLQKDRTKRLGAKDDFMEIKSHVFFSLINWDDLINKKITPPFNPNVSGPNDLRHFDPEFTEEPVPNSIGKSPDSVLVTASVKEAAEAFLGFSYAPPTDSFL
Chain of SRC (P12931 whole entry, species assumed): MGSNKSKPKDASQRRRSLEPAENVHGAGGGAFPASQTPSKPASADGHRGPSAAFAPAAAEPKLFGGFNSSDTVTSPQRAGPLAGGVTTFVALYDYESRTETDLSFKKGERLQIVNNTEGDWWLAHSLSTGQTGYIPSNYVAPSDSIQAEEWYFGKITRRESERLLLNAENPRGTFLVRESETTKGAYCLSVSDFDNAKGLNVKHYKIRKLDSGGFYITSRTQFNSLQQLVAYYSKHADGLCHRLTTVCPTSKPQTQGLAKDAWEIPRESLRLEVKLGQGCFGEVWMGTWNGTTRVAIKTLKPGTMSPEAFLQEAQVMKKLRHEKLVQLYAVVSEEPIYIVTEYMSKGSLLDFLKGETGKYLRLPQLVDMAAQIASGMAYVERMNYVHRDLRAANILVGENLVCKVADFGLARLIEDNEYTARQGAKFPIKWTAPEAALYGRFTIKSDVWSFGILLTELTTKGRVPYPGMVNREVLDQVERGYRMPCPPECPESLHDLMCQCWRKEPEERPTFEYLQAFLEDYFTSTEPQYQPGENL
Chain of IGF1R (P08069 31-1367, species assumed): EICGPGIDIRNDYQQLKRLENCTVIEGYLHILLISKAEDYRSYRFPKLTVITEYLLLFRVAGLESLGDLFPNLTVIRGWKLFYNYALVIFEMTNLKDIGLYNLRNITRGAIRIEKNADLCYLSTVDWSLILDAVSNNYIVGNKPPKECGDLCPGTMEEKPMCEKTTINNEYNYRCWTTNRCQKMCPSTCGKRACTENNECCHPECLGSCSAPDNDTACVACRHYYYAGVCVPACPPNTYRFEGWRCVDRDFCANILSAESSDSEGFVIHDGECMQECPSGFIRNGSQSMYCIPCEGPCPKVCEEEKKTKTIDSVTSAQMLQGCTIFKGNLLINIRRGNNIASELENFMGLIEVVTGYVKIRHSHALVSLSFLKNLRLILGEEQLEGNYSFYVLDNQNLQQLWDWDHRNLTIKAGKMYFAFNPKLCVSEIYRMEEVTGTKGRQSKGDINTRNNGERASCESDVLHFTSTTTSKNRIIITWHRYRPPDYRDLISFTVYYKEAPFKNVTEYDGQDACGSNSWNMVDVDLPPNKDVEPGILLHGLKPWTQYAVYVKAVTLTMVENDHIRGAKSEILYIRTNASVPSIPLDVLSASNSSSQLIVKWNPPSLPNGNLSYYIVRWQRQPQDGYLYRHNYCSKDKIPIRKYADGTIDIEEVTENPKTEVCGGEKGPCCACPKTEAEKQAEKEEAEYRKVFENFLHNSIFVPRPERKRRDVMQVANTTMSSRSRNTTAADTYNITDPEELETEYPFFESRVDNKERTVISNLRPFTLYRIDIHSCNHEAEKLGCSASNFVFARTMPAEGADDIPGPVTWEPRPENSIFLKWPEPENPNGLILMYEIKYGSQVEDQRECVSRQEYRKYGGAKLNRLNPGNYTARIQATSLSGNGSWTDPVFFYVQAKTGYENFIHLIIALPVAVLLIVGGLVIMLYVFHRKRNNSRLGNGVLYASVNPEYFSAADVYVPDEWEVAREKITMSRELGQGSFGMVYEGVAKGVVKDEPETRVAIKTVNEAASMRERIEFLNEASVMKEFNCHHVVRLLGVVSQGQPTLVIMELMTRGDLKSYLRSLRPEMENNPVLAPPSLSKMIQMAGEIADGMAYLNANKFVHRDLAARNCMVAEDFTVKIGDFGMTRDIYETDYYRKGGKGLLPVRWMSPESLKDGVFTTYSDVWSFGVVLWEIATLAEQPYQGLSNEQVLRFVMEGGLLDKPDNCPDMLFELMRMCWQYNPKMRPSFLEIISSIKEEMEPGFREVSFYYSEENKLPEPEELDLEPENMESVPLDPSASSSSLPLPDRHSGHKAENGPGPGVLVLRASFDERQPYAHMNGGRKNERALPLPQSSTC
Chain of PRAK (Q8IW41 whole entry, species assumed): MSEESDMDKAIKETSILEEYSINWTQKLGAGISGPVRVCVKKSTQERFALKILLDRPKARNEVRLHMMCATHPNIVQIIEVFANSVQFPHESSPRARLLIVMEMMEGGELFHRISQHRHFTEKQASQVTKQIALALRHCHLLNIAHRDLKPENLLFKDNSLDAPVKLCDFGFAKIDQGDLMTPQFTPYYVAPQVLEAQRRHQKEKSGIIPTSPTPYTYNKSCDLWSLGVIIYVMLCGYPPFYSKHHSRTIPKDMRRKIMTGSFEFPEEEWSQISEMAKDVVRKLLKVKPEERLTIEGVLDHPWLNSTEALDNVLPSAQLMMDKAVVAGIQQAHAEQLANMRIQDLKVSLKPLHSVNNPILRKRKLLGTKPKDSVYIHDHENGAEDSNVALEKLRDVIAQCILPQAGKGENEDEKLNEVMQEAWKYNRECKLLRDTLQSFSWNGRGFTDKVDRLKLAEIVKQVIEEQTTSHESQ
Chain of p38α (Q16539 whole entry): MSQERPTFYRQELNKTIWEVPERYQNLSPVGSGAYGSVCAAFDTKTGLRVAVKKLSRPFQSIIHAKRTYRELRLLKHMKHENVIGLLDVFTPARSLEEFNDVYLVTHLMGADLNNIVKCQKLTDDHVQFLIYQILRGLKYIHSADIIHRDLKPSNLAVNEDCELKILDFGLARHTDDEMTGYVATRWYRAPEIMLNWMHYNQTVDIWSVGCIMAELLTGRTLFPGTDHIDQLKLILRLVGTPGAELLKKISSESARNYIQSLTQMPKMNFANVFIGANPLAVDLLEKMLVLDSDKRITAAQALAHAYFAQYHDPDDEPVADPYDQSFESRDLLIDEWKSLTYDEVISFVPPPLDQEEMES

Which inhibition at 5 µM (AKT2) does the source give for `CC(C)c1ccc(C=C2SC(=O)NC2=O)cc1` [5-(4-iso-propylbenzylidene)thiazolidine-2,4-dione] here?
Its inhibition at 5 µM is -1%.

And the inhibition at 5 µM (AKT3)?
Its inhibition at 5 µM is 3%.

What about the inhibition at 5 µM (AurA) of the same compound?
Its inhibition at 5 µM is 4%.

What about the inhibition at 5 µM (BTK) of the same compound?
The inhibition at 5 µM was 7%.

And the inhibition at 5 µM (CDK2)?
The inhibition at 5 µM was -2%.

And the inhibition at 5 µM (CHK1)?
Its inhibition at 5 µM is -20%.

And the inhibition at 5 µM (CHK2)?
The inhibition at 5 µM was 4%.

What about the inhibition at 5 µM (c-Raf) of the same compound?
Its inhibition at 5 µM is -1%.

And the inhibition at 5 µM (EGFR)?
Its inhibition at 5 µM is -3%.

What about the inhibition at 5 µM (Erk1) of the same compound?
The inhibition at 5 µM was 1%.

And the inhibition at 5 µM (Erk2)?
The inhibition at 5 µM was -1%.

And the inhibition at 5 µM (FLT3)?
The inhibition at 5 µM was 1%.

And the inhibition at 5 µM (FYN)?
The inhibition at 5 µM was 0%.

What about the inhibition at 5 µM (HGK) of the same compound?
The inhibition at 5 µM was 9%.

And the inhibition at 5 µM (IGF1R)?
The inhibition at 5 µM was -1%.

And the inhibition at 5 µM (Ikkβ)?
Its inhibition at 5 µM is 10%.

What about the inhibition at 5 µM (INSR) of the same compound?
The inhibition at 5 µM was 4%.

What about the inhibition at 5 µM (JAK2) of the same compound?
Its inhibition at 5 µM is 18%.

What about the inhibition at 5 µM (JNK2) of the same compound?
The inhibition at 5 µM was 14%.

And the inhibition at 5 µM (LCK)?
Its inhibition at 5 µM is 3%.

And the inhibition at 5 µM (LYN)?
Its inhibition at 5 µM is 8%.

And the inhibition at 5 µM (MET)?
Its inhibition at 5 µM is -6%.

And the inhibition at 5 µM (p38α)?
The inhibition at 5 µM was 0%.

What about the inhibition at 5 µM (PDK1) of the same compound?
The inhibition at 5 µM was 1%.

And the inhibition at 5 µM (PKA)?
Its inhibition at 5 µM is 3%.

What about the inhibition at 5 µM (PKCζ) of the same compound?
The inhibition at 5 µM was 3%.

And the inhibition at 5 µM (PKD2)?
The inhibition at 5 µM was -3%.

What about the inhibition at 5 µM (PKGα) of the same compound?
Its inhibition at 5 µM is 0%.

What about the inhibition at 5 µM (PRAK) of the same compound?
The inhibition at 5 µM was 4%.

What about the inhibition at 5 µM (ROCK2) of the same compound?
Its inhibition at 5 µM is 5%.

What about the inhibition at 5 µM (RSK1) of the same compound?
The inhibition at 5 µM was 5%.

And the inhibition at 5 µM (SGK1)?
The inhibition at 5 µM was 5%.

What about the inhibition at 5 µM (SRC) of the same compound?
Its inhibition at 5 µM is 4%.

And the inhibition at 5 µM (SYK)?
Its inhibition at 5 µM is -3%.
